Experimental data: patent publication US10730874B2 (Shire Human Genetic Therapies, Inc., priority 2018, dated 2020)

The compounds below were run against human activated kallikrein enzyme (plasma kallikrein) (Homo sapiens (Human), UniProt P03952) (assay: Inhibition of human activated plasma kallikrein, fluorogenic peptide substrate assay, 500 pM enzyme format). Details: 500 pM activated kallikrein enzyme, 300 uM Pro-Phe-Arg-7-amido-4-methylcoumarin substrate, 30 min preincubation, 10 min at RT; read-out: Primary Dose Response Assay: Average EC50.
Type: biochemical
How it was run: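 Buffer 20 mM Tris pH 7.5, EDTA, NaCl, PEG-400, Triton X-100; 300 uM Pro-Phe-Arg-AMC; enzyme–inhibitor preincubation 30 min RT. Format one: 500 pM kallikrein, 10 min RT reaction; format two: 5 pM kallikrein, 18 h RT reaction. Fluorescence read at 460 nm (380 nm excitation).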

human activated kallikrein enzyme (plasma kallikrein), sequence (P03952 391-638): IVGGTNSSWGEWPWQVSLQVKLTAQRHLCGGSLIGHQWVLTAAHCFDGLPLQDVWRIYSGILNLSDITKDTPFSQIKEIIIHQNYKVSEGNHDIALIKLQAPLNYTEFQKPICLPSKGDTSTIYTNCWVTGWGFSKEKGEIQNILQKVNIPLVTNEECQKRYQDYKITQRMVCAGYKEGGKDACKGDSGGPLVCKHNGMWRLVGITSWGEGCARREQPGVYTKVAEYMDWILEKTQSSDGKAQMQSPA
human activated kallikrein enzyme (plasma kallikrein), sequence (P03952 20-390 partner): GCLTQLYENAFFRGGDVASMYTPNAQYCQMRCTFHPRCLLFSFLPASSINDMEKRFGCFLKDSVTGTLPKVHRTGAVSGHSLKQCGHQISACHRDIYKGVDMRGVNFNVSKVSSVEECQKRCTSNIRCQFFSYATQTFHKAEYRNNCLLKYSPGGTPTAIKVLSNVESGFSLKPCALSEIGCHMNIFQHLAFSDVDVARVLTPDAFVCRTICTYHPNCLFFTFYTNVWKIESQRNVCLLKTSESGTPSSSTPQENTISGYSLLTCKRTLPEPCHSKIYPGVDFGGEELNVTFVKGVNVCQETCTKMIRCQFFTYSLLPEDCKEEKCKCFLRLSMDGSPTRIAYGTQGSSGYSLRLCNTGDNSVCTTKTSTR

| SMILES | EC50 |
| --- | --- |
| O=C(NCc1ncn2ccc(Cl)c(F)c12)c1cn(Cc2cc3ccc(C4CC4)cc3[nH]2)nn1 [Example I-235, N-((7-chloro-8-fluoroimidazo[1,5-a]pyridin-1-yl)methyl)-1-((6-cyclopropyl-1H-indol-2-yl)methyl)-1H-1,2,3-triazole-4-carboxamide] | 100 to 2000 nM |
| COc1c(C2CC2)ccc2nc(Cn3cc(C(=O)NCc4ncn5ccc(Cl)cc45)cn3)cn12 [Example I-142, N-((7-chloroimidazo[1,5-a]pyridin-1-yl)methyl)-1-((6-cyclopropyl-5-methoxyimidazo[1,2-a]pyridin-2-yl)methyl)-1H-pyrazole-4-carboxamide] | 1 to 10 nM |
| O=C(NCc1ncn2ccc(Cl)c(F)c12)c1cn(Cc2cn3cc(C4CC4)cc(N4CC5(COC5)C4)c3n2)nn1 [Example I-250, N-((7-chloro-8-fluoroimidazo[1,5-a]pyridin-1-yl)methyl)-1-((6-cyclopropyl-8-(2-oxa-6-azaspiro[3.3]heptan-6-yl)imidazo[1,2-a]pyridin-2-yl)methyl)-1H-1,2,3-triazole-4-carboxamide] | < 1 nM |
| O=C(NCc1ncn2ccc(Cl)cc12)c1cnn(Cc2cn3cc(C4CC4)cc(C(O)C4COC4)c3n2)c1 (stereo not drawn) [Example I-141, N-((7-chloroimidazo[1,5-a]pyridin-1-yl)methyl)-1-((6-cyclopropyl-8-(hydroxy(oxetan-3-yl)methyl)imidazo[1,2-a]pyridin-2-yl)methyl)-1H-pyrazole-4-carboxamide] | < 1 nM |
| COC(=O)c1ccc(-n2c(Cn3cc(C(=O)NCc4ncn5ccc(Cl)c(F)c45)nn3)cc3cc(C4CC4)ccc32)cc1 [Example I-254, methyl 4-(2-((4-(((7-chloro-8-fluoroimidazo[1,5-a]pyridin-1-yl)methyl)carbamoyl)-1H-1,2,3-triazol-1-yl)methyl)-5-cyclopropyl-1H-indol-1-yl)benzoate] | 1 to 10 nM |
| CS(=O)(=O)c1cc(C2CC2)cn2cc(Cn3cc(C(=O)NCc4ncn5ccc(Cl)cc45)cn3)nc12 [Example I-159, N-((7-chloroimidazo[1,5-a]pyridin-1-yl)methyl)-1-((6-cyclopropyl-8-(methylsulfonyl)imidazo[1,2-a]pyridin-2-yl)methyl)-1H-pyrazole-4-carboxamide] | < 1 nM |
| CCOC(=O)C(C)Cc1cc(C2CC2)cn2cc(Cn3cc(C(=O)NCc4ncn5ccc(Cl)c(F)c45)nn3)nc12 (stereo not drawn) [Example I-245a, ethyl 3-(2-((4-(((7-chloro-8-fluoroimidazo[1,5-a]pyridin-1-yl)methyl)carbamoyl)-1H-1,2,3-triazol-1-yl)methyl)-6-cyclopropylimidazo[1,2-a]pyridin-8-yl)-2-methylpropanoate] | < 1 nM |
| O=C(NCc1ncn2ccc(Cl)c(F)c12)c1cn(Cc2cn3cc(C4CC4)cc(CC4(C(=O)O)CCCC4)c3n2)nn1 [Example I-221b, 1-((2-((4-(((7-chloro-8-fluoroimidazo[1,5-a]pyridin-1-yl)methyl)carbamoyl)-1H-1,2,3-triazol-1-yl)methyl)-6-cyclopropylimidazo[1,2-a]pyridin-8-yl)methyl)cyclopentane-1-carboxylic acid] | < 1 nM |
| CC1(C)CC1c1ccn2cc(Cn3cc(C(=O)NCc4ncn5ccc(Cl)cc45)cn3)nc2c1 (stereo not drawn) [Example I-41, N-((7-chloroimidazo[1,5-a]pyridin-1-yl)methyl)-1-((7-(2,2-dimethylcyclopropyl)imidazo[1,2-a]pyridin-2-yl)methyl)-1H-pyrazole-4-carboxamide] | 10 to 100 nM |
| O=C(NCc1ncn2ccc(Cl)cc12)c1ncn(Cc2cn3cc(C4CC4)ccc3n2)n1 [Example I-152, N-((7-chloroimidazo[1,5-a]pyridin-1-yl)methyl)-1-((6-cyclopropylimidazo[1,2-a]pyridin-2-yl)methyl)-1H-1,2,4-triazole-3-carboxamide] | < 1 nM |
| O=C(NCc1ncn2ccc(Cl)cc12)c1cnn(Cc2cn3c(Cl)c(Br)ccc3n2)c1 [Example I-39, 1-((6-bromo-5-chloroimidazo[1,2-a]pyridin-2-yl)methyl)-N-((7-chloroimidazo[1,5-a]pyridin-1-yl)methyl)-1H-pyrazole-4-carboxamide] | 1 to 10 nM |
| COC(=O)c1c(Cn2cc(C(=O)NCc3ncn4ccc(Cl)c(F)c34)nn2)[nH]c2cc(C3CC3)ccc12 [Example I-195, methyl 2-((4-(((7-chloro-8-fluoroimidazo[1,5-a]pyridin-1-yl)methyl)carbamoyl)-1H-1,2,3-triazol-1-yl)methyl)-6-cyclopropyl-1H-indole-3-carboxylate] | 100 to 2000 nM |
| CCc1ccn2cnc(CNC(=O)c3cnn(Cc4cn5cc(C6CC6)ccc5n4)c3)c2c1 [Example I-67, 1-((6-cyclopropylimidazo[1,2-a]pyridin-2-yl)methyl)-N-((7-ethylimidazo[1,5-a]pyridin-1-yl)methyl)-1H-pyrazole-4-carboxamide] | 10 to 100 nM |
| O=C(NCCc1ncn2ccc(Cl)cc12)c1cnn(Cc2cn3cc(C4CC4)ccc3n2)c1 [Example I-94, N-(2-(7-chloroimidazo[1,5-a]pyridin-1-yl)ethyl)-1-((6-cyclopropylimidazo[1,2-a]pyridin-2-yl)methyl)-1H-pyrazole-4-carboxamide] | 10 to 100 nM |
| COC(=O)Cc1cc(C2CC2)cn2cc(Cn3cc(C(=O)NCc4ncn5ccc(Cl)cc45)cn3)nc12 [Example I-81, methyl 2-(2-((4-(((7-chloroimidazo[1,5-a]pyridin-1-yl)methyl)carbamoyl)-1H-pyrazol-1-yl)methyl)-6-cyclopropylimidazo[1,2-a]pyridin-8-yl)acetate] | < 1 nM |
| Cc1ccc2nc(Cn3cc(C(=O)NCc4ncn5c(N)cc(Cl)cc45)cn3)cn2c1 [Example I-58, N-((5-amino-7-chloroimidazo[1,5-a]pyridin-1-yl)methyl)-1-((6-methylimidazo[1,2-a]pyridin-2-yl)methyl)-1H-pyrazole-4-carboxamide] | 1 to 10 nM |
| O=Cc1cc(C2CC2)cn2cc(Cn3cc(C(=O)NCc4ncn5ccc(Cl)c(F)c45)nn3)nc12 [Example I-182, N-((7-chloro-8-fluoroimidazo[1,5-a]pyridin-1-yl)methyl)-1-((6-cyclopropyl-8-formylimidazo[1,2-a]pyridin-2-yl)methyl)-1H-1,2,3-triazole-4-carboxamide] | < 1 nM |
| O=C(O)CCc1cc(C2CC2)cn2cc(Cn3cc(C(=O)NCc4ncn5ccc(Cl)cc45)cn3)nc12 [Example I-100c, 3-(2-((4-(((7-chloroimidazo[1,5-a]pyridin-1-yl)methyl)carbamoyl)-1H-pyrazol-1-yl)methyl)-6-cyclopropylimidazo[1,2-a]pyridin-8-yl)propanoic acid] | < 1 nM |
| N#Cc1cc(C2CC2)cn2cc(Cn3cc(C(=O)NCc4ncn5ccc(Br)c(F)c45)nn3)nc12 [Example I-131, N-((7-bromo-8-fluoroimidazo[1,5-a]pyridin-1-yl)methyl)-1-((8-cyano-6-cyclopropylimidazo[1,2-a]pyridin-2-yl)methyl)-1H-1,2,3-triazole-4-carboxamide] | < 1 nM |

Same assay, conditions: comparative compounds (Table II); assay format with 500 pM (500 μM in the source) activated kallikrein; read-out: Primary Dose Response Assay: Average EC50

| SMILES | EC50 |
| --- | --- |
| O=C(NCc1nsc2ccc(Cl)cc12)c1cnn(Cc2cn3cc(C4CC4)ccc3n2)c1 [reference compound] | 10 to 100 nM |
| O=C(NCc1ncn2ccc(Cl)cc12)c1ccnc(Cc2ccc3ncc(Cl)cc3c2)c1 [drawing 399, reference compound] | 10 to 100 nM |
